Source: patent publication US7053088B2, “Vanilloid receptor ligands and their use in treatments” (Amgen Inc., priority 2002, dated 2006)

Row | SMILES | melting point
1 | Cc1cc(O)nc2cc(Nc3cc(-c4ccc(C(F)(F)F)cc4)ncn3)ccc12.Cl [4-Methyl-7-{[6-(4-trifluoromethylphenyl)pyrimidin-4-yl]amino}quinolin-2-ol, hydrochloride] | 373 °C (dec.)
2 | FC(F)(F)c1ccc(-c2cc(Nc3ccc4c(c3)OCCO4)ncn2)cc1 [(2,3-dihydrobenzo[1,4]dioxin-6-yl)-[6-(4-trifluoromethylphenyl)pyrimidin-4-yl]amine] | 167 to 168 °C
3 | FC(F)(F)c1ccc(-c2cc(Nc3cccc4[nH]ccc34)ncn2)cc1 [Example 43] | 222 to 224 °C

Now from value to molecule:

Row | melting point | SMILES
4 | 241 to 242 °C | CC(C)(C)c1ccc(-c2cc(Nc3cccc4[nH]ccc34)ncn2)cc1 [Example 46]
5 | 243 °C | FC(F)(F)c1ccc(-c2cc(Nc3ccc4ncsc4c3)nnc2-c2ccc(C(F)(F)F)cc2)cc1 [benzothiazol-6-yl-[5,6-bis-(4-trifluoromethylphenyl)pyridazin-3-yl]amine]
6 | 230 to 232 °C | CC(C)(C)c1ccc(-c2cc(Nc3ccc4c(c3)CCCC4=O)ncn2)cc1 [6-[6-(4-tert-butylphenyl)pyrimidin-4-ylamino]-3,4-dihydro-2H-naphthalen-1-one]
7 | 236 to 238 °C | CC(=O)Nc1ccc(Nc2cc(-c3ccc(C(F)(F)F)cc3)ncn2)cc1 [Example 66]
